Consider seven compounds from patent US8278072B1, “Method for synthesis of sialylated products using reversible sialylation” (Health Research, Inc., priority 2007, dated 2012).

Marks after values point to notes of the source that are not given here.

Experiment [1] deals with T1, ST3Gal-II (Rattus norvegicus, UniProt Q11205).
T1 construct: purchased Calbiochem
T1 sequence (Q11205 1-350): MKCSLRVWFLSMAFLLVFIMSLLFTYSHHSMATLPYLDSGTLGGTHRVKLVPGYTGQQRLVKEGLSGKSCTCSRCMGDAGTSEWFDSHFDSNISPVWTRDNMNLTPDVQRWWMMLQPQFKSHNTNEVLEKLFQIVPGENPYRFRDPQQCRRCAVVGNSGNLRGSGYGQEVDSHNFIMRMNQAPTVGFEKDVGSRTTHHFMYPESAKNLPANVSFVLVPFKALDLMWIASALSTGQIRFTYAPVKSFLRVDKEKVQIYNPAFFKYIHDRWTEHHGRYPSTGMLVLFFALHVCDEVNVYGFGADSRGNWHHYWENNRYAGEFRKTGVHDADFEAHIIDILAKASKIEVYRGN
Description: Serial transfer of sialic acid from donor via 5′-CMP to acceptors (scheme-II). Format: biochemical. The following applies: for Incorporation of [9-3H]NeuAc from donor [3], percent of the CPM incorporated into [5]: 150 μM donor [3]. On the procedure: FIG. 3. Serial transfer of sialic acid using scheme-II was followed at increasing concentrations of acceptor D-Fucβ1,3GalNAcα-O-Bn. The donor used was either: i) 0.15 mM [9-^3H]CMP-NeuAc; or, ii) 0.15 mM [9-^3H]NeuAcα2,3Galβ1,3(4-FGlcNAcβ1,6)GalNAcα-O-Bn [9-^3H [2]] in the presence of 2.0 mM 5′-CMP, or iii) [9-^3H]NeuAcα2,3Galβ1,3(6-O-SulfoGlcNAcβ1,6)GalNAcα-O—Al [[9-^3H] [4]] in the presence of 2.0 mM 5′-CMP. In runs where [9-^3H [2]] was donor since both and [2] bind C18 cartridges, control runs were performed in the absence of D-Fucβ1,3GalNAcα-O-Bn to estimate the amount of [9-^3H]CMP-NeuAc formed under the experimental conditions. 80-85% of the radioactivity was transferred to CMP-NeuAc in these runs. The amount of CMP-NeuAc remaining in runs with was then subtracted from CMP-NeuAc radioactivity in the control run to determine the amount of sialylated. To complement this run, studies were also performed with [[9-^3H] […] In these runs, the amount of sialylated was determined by measuring radioactivity retained in the C18-cartridge. a. Equilibrium constant was 5.55 when CMP-[9-^3H]NeuAc was donor. b. ˜10-fold lower acceptor concentration was required for similar extents of reaction when CMP-[9-^3H]NeuAc was donor, compared to core-2 based donors and [4].
We tested the possibility that CMP-NeuAc formed above may be available for transfer to other acceptors using ST3Gal-II (scheme-II, FIG. 3). For this, three radiolabeled donors were prepared using methods described above: two were based on the mucin Core-2 structure ([[9-^3H] [1]] and [9-^3H]NeuAcα2,3Galβ1,3(6-O-SulfoGlcNAcβ1,6)GalNAcα-O—Al [[9-^3H] [4]]) while the third was based on the Globo glycolipid ([9-^3H] [3]). The transfer of [9-^3H]NeuAc from these sialylated donors to various T-hapten (Galβ1,3GalNAcα) and mucin core2-based glycoside acceptors in the presence of 5′-CMP and ST3Gal-II was assessed (Table III). All three […] of ST3Gal-II ([1], [3] and [4]) allowed formation of CMP-[9-^3H]NeuAc, and a diverse array of products.
The transfer of [9-^3H]NeuAc from [[9-^3H][1]] to D-Fucβ1,3GalNAcα-O-Bn in the presence of 5′-CMP and ST3Gal-II increased linearly in the first two hours and it reached saturation at 4 hours (FIG. 12), and thus the data in Table III (4 hours time point) represent equilibrium conditions. […] Further, diverse sialylated products can be formed using the same synthetic sialylated donor.
In order to compare the efficiency of individual reactions of scheme II, independent runs were performed where either 0.15 mM [9-^3H]CMP-NeuAc, 0.15 mM [9-^3H] [2] or 0.15 mM [9-^3H] [4] was the donor, and [5] was the acceptor (FIG. 3). 2 mM 5′-CMP was added in runs with core-2 donors and [4], and thus reverse sialylation of these molecules was feasible. Keq for transfer of sialic acid from CMP-NeuAc to [5] was 5.55 (FIG. 3a). […] (˜6 mM) or [9-^3H[4]] (˜6 mM). Thus, while the two-step mechanism results in lower conversion than CMP-NeuAc alone, the transfer of NeuAc still takes place at an appreciable rate.

The target of experiment [2] is T1, ST3Gal-II. Description: Reverse sialylation: transfer of [9-3H]NeuAc from sialylated donor to nucleotide phosphates (WGA-agarose). Format: biochemical. The conditions noted are these: 150 μM donor, 1.0 mM 5′-CMP. On the procedure:
FIG. 1. Nucleotide phosphates as acceptors of radioactivity from [9-^3H]NeuAcα2,3Galβ,13 (GlcNAcβ1,6)GalNAcα-O—Al (Al=Allyl) [[9-^3H] [1]] in the presence of ST3Gal-II (scheme-I). Reaction mixtures (RM) with the following composition were incubated at 37° C. for 21 hours in 100 mM NaCa Codylate buffer, pH6.0: i) RM containing 150 μM (0.4 μCi) [[9-^3H] [1]] (donor) along with 0.8 mU ST3Gal-II but no 5″-CMP; and, ii) RM containing [[9-^3H] [1]] and 1.0 mM 5′-CMP, along with ST3Gal-II. Products formed were fractionated on a WGA-agarose column. […] The feasibility of the reverse reaction is well established in literature. Schematic symbols: ♦:sialic acid, ●:Gal, □:GalNAc, ▪:GlcNAc.
All enzymatic sialylation reactions were typically carried out in 100 mM NaCa Codylate buffer pH6.0 in the presence of enzyme, synthetic acceptor (at 7.5 mM or as indicated in each experiment) and 0.2 μCi CMP-[9-^3H]NeuAc (NEN-Dupont, 29 mCi/μmol). The concentration of total CMP-NeuAc was adjusted in individual reactions by supplementing with additional cold CMP-NeuAc. Reaction volume was 20 μl. Products formed were separated using four different chromatography procedures (below). In all cases, the radioactive content of isolated products was determined by using 3a70 scintillation cocktail (Research Products International, Mount Prospect, Ill.), and a Beckman LS6500 scintillation counter.
a) Biogel P2 chromatography: A Biogel P2 column (Fine Mesh; 1.0×116.0 cm) was used with 0.1 M pyridine acetate (pH5.4) as the eluent at room temperature. […] Fractions of 1.0 ml were collected. The bound material was then eluted with 0.5M GlcNAc or 0.2M Gal in the same buffer. […] Calculation of equilibrium constant, Keq: Equilibrium constant was calculated for selected reversible bimolecular reactions that are denoted by:
Cloned and purified rat sialyltransferase α2,3(O)ST (ST3Gal-II) is used in many experiments presented in this manuscript. […] In order to determine if the sialylation reaction is reversible (FIG. 1), [9-^3H]NeuAcα2,3Galβ,13(GlcNAcβ1,6)GalNAcα-O—Al (Al=Allyl) [9-^3H[1]] was prepared using ST3Gal-II in the presence of CMP-[9-^3H]NeuAc and the trisaccharide acceptor Galβ1,3(GlcNAcβ1,6)GalNAcα-O—Al, and the radiolabeled product was isolated using Biogel P2 chromatography. […] Two different reaction mixtures were then prepared with: i) [9-^3H[1]] and ST3Gal-II but without 5″-CMP; and ii) [9-^3H[1]] and 5″-CMP along with ST3Gal-II.

[3] abbreviates: acceptor 2.5 mM, 150 μM donor [1], 1 mM 5′-CMP, 4 hours.
[4] abbreviates: acceptor 2.5 mM, 1 mM 5′-CMP, 4 hours.
The mark [5] stands for this setting: acceptor 2.5 mM, 150 μM donor [4], 1 mM 5′-CMP, 4 hours.

In the case of `COC[C@H]1O[C@H](OCc2ccccc2)[C@H](NC(C)=O)[C@@H](O[C@@H]2O[C@H](CO)[C@H](O)[C@H](O)[C@H]2O)[C@H]1O` [[8], Galβ1,3(6-O-Me)GalNAcα-O-Bn], the “Incorporation of [9-3H]NeuAc from donor [1], percent of the CPM incorporated into [5]” value on ST3Gal-II [1] (setting [3]) is 43.0%. Besides, the “Incorporation of [9-3H]NeuAc from donor [3], percent of the CPM incorporated into [5]” value on ST3Gal-II [1] (setting [4]) worked out at 3.3%. Also, the “Incorporation of [9-3H]NeuAc from donor [4], percent of the CPM incorporated into [5]” value on ST3Gal-II [1] (setting [5]) is 21.5%.
On to `CO[C@H]1[C@@H](O)[C@@H](CO)O[C@@H](O[C@H]2[C@H](O)[C@@H](NC(C)=O)[C@H](OC[C@H]3O[C@H](OCc4ccccc4)[C@H](NC(C)=O)[C@@H](O[C@@H]4O[C@H](CO)[C@H](O)[C@H](O)[C@H]4O)[C@H]3O)O[C@@H]2CO)[C@@H]1O` [[9], 3-O-MeGalβ1,4GlcNAcβ1,6(Galβ1,3)GalNAcα-O-Bn], for which the “Incorporation of [9-3H]NeuAc from donor [1], percent of the CPM incorporated into [5]” value on ST3Gal-II [1] (setting [3]) came out at 22.4%. Moreover, the “Incorporation of [9-3H]NeuAc from donor [4], percent of the CPM incorporated into [5]” value on ST3Gal-II [1] (setting [5]) is given as 10.0%.
For `CO[C@@H]1[C@H](O)[C@@H](O)[C@H](O[C@H]2[C@@H](O)[C@@H](CO)O[C@H](OCc3ccccc3)[C@@H]2NC(C)=O)O[C@@H]1CO` [[11], 4-O-MeGalβ1,3GalNAcα-O-Bn], the “Incorporation of [9-3H]NeuAc from donor [1], percent of the CPM incorporated into [5]” value on ST3Gal-II [1] (setting [3]) is listed as 8.9%. Moreover, on ST3Gal-II [1] (setting [4]), the “Incorporation of [9-3H]NeuAc from donor [3], percent of the CPM incorporated into [5]” value is given as 0.2%. Also, at ST3Gal-II [1] (setting [5]), the “Incorporation of [9-3H]NeuAc from donor [4], percent of the CPM incorporated into [5]” value was 2.7%.
`CC(=O)N[C@H]1[C@H](OCc2ccccc2)O[C@H](CO)[C@@H](O[C@@H]2O[C@H](CO)[C@H](O)[C@H](O)[C@H]2O)[C@@H]1O` [[12], Galβ1,4GlcNAcβ-O-Bn]: on ST3Gal-II [1] (setting [4]), the “Incorporation of [9-3H]NeuAc from donor [3], percent of the CPM incorporated into [5]” value is on record as 0.5%. For the same compound, the “Incorporation of [9-3H]NeuAc from donor [4], percent of the CPM incorporated into [5]” value on ST3Gal-II [1] (setting [5]) is recorded as 1.9%.
On to `CO[C@@H]1[C@H](O)[C@@H](O)[C@H](O[C@H]2[C@@H](O)[C@@H](CO[C@@H]3O[C@H](CO)[C@@H](O[C@@H]4O[C@H](CO)[C@H](O)[C@H](O)[C@H]4O)[C@H](O)[C@H]3NC(C)=O)O[C@H](OCc3ccccc3)[C@@H]2NC(C)=O)O[C@@H]1CO` [[13], Galβ1,4GlcNAcβ1,6(4-O-MeGalβ1,3)GalNAcα-O-Bn], for which, on ST3Gal-II [1] (setting [3]), the “Incorporation of [9-3H]NeuAc from donor [1], percent of the CPM incorporated into [5]” value came to 1.3%. In addition, on ST3Gal-II [1] (setting [5]), the “Incorporation of [9-3H]NeuAc from donor [4], percent of the CPM incorporated into [5]” value is on record as 0%.
With D-Fucβ1,3GalNAcα-O-Bn [[5]], on ST3Gal-II [1] (setting [3]), the “Incorporation of [9-3H]NeuAc from donor [1]” value is recorded as “(34569 CPM)” and the “Incorporation of [9-3H]NeuAc from donor [1], percent of the CPM incorporated into [5]” value stood at 100.0%. At ST3Gal-II [1] (acceptor 2.5 mM, 150 μM donor [3] of lower specific radioactivity, 1 mM 5′-CMP, 4 hours), the “Incorporation of [9-3H]NeuAc from donor [3]” value is on record as “(6224 CPM)***”. Further, the “Incorporation of [9-3H]NeuAc from donor [3], percent of the CPM incorporated into [5]” value at ST3Gal-II [1] (setting [4]) stood at 100.0%. For the same compound, on ST3Gal-II [1] (setting [5]), the “Incorporation of [9-3H]NeuAc from donor [4]” value was “(97675 CPM)” and the “Incorporation of [9-3H]NeuAc from donor [4], percent of the CPM incorporated into [5]” value was determined as 100.0%. For the same compound, the “Keq for transfer of sialic acid from CMP-NeuAc to [5]” value at ST3Gal-II [1] (donor 0.15 mM CMP-[9-3H]NeuAc) is 5.55.
Regarding “[9-^3H]NeuAcα2,3Galβ,13 (GlcNAcβ1,6)GalNAcα-O—Al [[1]]”, on ST3Gal-II [2], the “transfer of radioactive [9-3H]NeuAc from donor to 5′-CMP” value is greater than 90%.
